Reference: patent US20240158348A1, “HERBICIDAL CYCLIC AMIDES N-SUBSTITUTED WITH A HALOALKYLSULFONYLANILIDE GROUP” (FMC Corporation, priority 2021, published 2024)

Experiments:
Assay type in all cases: in vivo
[1] = test system: goosegrass (Eleusine indica); assay: Test C postemergence, goosegrass
From the text: (§1) Seeds of plant species selected from blackgrass (Alopecurus myosuroides), corn (Zea mays), foxtail, giant (giant foxtail, Setaria faberi), goosegrass (Eleusine indica), kochia (Bassia scoparia), oat, wild (wild oat, Avena fatua), pigweed, palmer (palmer amaranth, Amaranthus palmeri), ragweed (common ragweed, Ambrosia artemisiifolia), ryegrass, Italian (Italian ryegrass, Lolium multiflorum), soybean (Glycine max) and wheat (Triticum aestivum) were planted into a blend of loam soil and sand and treated preemergence with a directed soil spray using test chemicals formulated in a non-phytotoxic solvent mixture which included a surfactant.
(§2) At the same time, plants selected from these crop and weed species and also galium (catchweed bedstraw, Galium aparine) and horseweed (Erigeron canadensis) were planted in pots containing the same blend of loam soil and sand and treated with postemergence applications of test chemicals formulated in the same manner. Plants ranged in height from 2 to 10 cm and were in the one- to two-leaf stage for the postemergence treatment. Treated plants and untreated controls were maintained in a greenhouse for 10 or 12 days, after which time all treated plants were compared to untreated controls and visually evaluated for injury. Plant response ratings, summarized in Table A, are based on a 0 to 100 scale where 0 is no effect and 100 is complete control. A dash (-) response means no test result.

[2] = test system: goosegrass (Eleusine indica); assay: Test C preemergence, goosegrass; details: 0 is no effect, 100 is complete control
From the text: as §1, §2

[3] = test system: galium (catchweed bedstraw, Galium aparine); assay: Test C postemergence, galium
From the text: as §1, §2

[4] = test system: corn (Zea mays); assay: Test C preemergence, corn; details: 0 is no effect, 100 is complete control
From the text: as §1, §2

[5] = test system: wheat (Triticum aestivum); assay: Test C postemergence, wheat; details: visual injury, 0 to 100 scale (0 no effect, 100 complete control)
From the text: as §1, §2

[6] = test system: blackgrass (Alopecurus myosuroides); assay: Test C preemergence, blackgrass; details: 0 is no effect, 100 is complete control
From the text: as §1, §2

[7] = test system: pigweed, palmer (palmer amaranth, Amaranthus palmeri); assay: Test C preemergence, palmer amaranth; details: 0 is no effect, 100 is complete control
From the text: as §1, §2

[8] = test system: ryegrass, Italian (Italian ryegrass, Lolium multiflorum); assay: Test C postemergence, Italian ryegrass; details: visual injury, 0 to 100 scale (0 no effect, 100 complete control)
From the text: as §1, §2

[9] = test system: rice (Oryza sativa); assay: Test D flooded paddy test, rice; design: key: 0 = no effect, 100 = complete control; details: 250 g ai/ha, Flood; applied to paddy water at 2-leaf stage; visual rating after 13 days; scale 0 (no effect) to 100 (complete control)
Description: (§3) Plant species in the flooded paddy test selected from barnyardgrass (Echinochloa crusgalli), ducksalad (Heteranthera limosa), rice (Oryza sativa), and sedge, umbrella (small-flower umbrella sedge, Cyperus difformis) were grown to the 2-leaf stage for testing. At time of treatment, test pots were flooded to 3 cm above the soil surface, treated by application of test compounds directly to the paddy water, and then maintained at that water depth for the duration of the test. Treated plants and controls were maintained in a greenhouse for 13 days, after which time all species were compared to controls and visually evaluated. Plant response ratings, summarized in Table B, are based on a scale of 0 to 100 where 0 is no effect and 100 is complete control. A dash (-) response means no test result.

[10] = test system: ducksalad (Heteranthera limosa); assay: Test D flooded paddy test, ducksalad; design: key: 0 = no effect, 100 = complete control; details: 250 g ai/ha, Flood; applied to paddy water at 2-leaf stage; visual rating after 13 days; scale 0 (no effect) to 100 (complete control)
Description: as §3

[11] = test system: soybean (Glycine max); assay: Test C postemergence, soybean; details: visual injury, 0 to 100 scale (0 no effect, 100 complete control)
From the text: as §1, §2

[12] = test system: sedge, umbrella (small-flower umbrella sedge, Cyperus difformis); assay: Test D flooded paddy test, umbrella sedge; design: key: 0 = no effect, 100 = complete control; details: 250 g ai/ha, Flood; applied to paddy water at 2-leaf stage; visual rating after 13 days; scale 0 (no effect) to 100 (complete control)
Description: as §3

[13] = test system: blackgrass (Alopecurus myosuroides); assay: Test C postemergence, blackgrass; details: 125 g ai/ha Postemergence; 0 is no effect, 100 is complete control
[14] = test system: kochia (Bassia scoparia); assay: Test C postemergence, kochia
From the text: as §1, §2

[15] = test system: foxtail, giant (giant foxtail, Setaria faberi); assay: Test C postemergence, giant foxtail
From the text: as §1, §2

[16] = test system: ragweed (common ragweed, Ambrosia artemisiifolia); assay: Test C postemergence, ragweed; details: visual injury, 0 to 100 scale (0 no effect, 100 complete control)
From the text: as §1, §2

[17] = test system: wheat (Triticum aestivum); assay: Test C preemergence, wheat; details: 0 is no effect, 100 is complete control
From the text: as §1, §2

[18] = test system: barnyardgrass (Echinochloa crusgalli); assay: Test D flooded paddy test, barnyardgrass; design: key: 0 = no effect, 100 = complete control; details: 250 g ai/ha, Flood; applied to paddy water at 2-leaf stage; visual rating after 13 days; scale 0 (no effect) to 100 (complete control)
Description: as §3

[19] = test system: ryegrass, Italian (Italian ryegrass, Lolium multiflorum); assay: Test C preemergence, Italian ryegrass; details: 0 is no effect, 100 is complete control
From the text: as §1, §2

[20] = test system: ragweed (common ragweed, Ambrosia artemisiifolia); assay: Test C preemergence, ragweed; details: 0 is no effect, 100 is complete control
From the text: as §1, §2

[21] = test system: corn (Zea mays); assay: Test C postemergence, corn
From the text: as §1, §2

[22] = test system: soybean (Glycine max); assay: Test C preemergence, soybean; details: 0 is no effect, 100 is complete control
From the text: as §1, §2

[23] = test system: foxtail, giant (giant foxtail, Setaria faberi); assay: Test C preemergence, giant foxtail; details: 0 is no effect, 100 is complete control
From the text: as §1, §2

[24] = test system: kochia (Bassia scoparia); assay: Test C preemergence, kochia; details: 0 is no effect, 100 is complete control
From the text: as §1, §2

[25] = test system: blackgrass (Alopecurus myosuroides); assay: Test C postemergence, blackgrass; details: 31 g ai/ha Postemergence; visual injury, 0 to 100 scale (0 no effect, 100 complete control)
From the text: as §1, §2

[26] = test system: pigweed, palmer (palmer amaranth, Amaranthus palmeri); assay: Test C postemergence, palmer amaranth; details: visual injury, 0 to 100 scale (0 no effect, 100 complete control)
From the text: as §1, §2

[27] = test system: oat, wild (wild oat, Avena fatua); assay: Test C preemergence, wild oat; details: 0 is no effect, 100 is complete control
From the text: as §1, §2

[28] = test system: oat, wild (wild oat, Avena fatua); assay: Test C postemergence, wild oat
From the text: as §1, §2

[29] = 31 g ai/ha Postemergence, visual injury, 0 to 100 scale (0 no effect, 100 complete control)
[30] = 125 g ai/ha Postemergence, 0 is no effect, 100 is complete control

Cc1c(N2CCC(OC3CCC3)C2=O)cc(N(COC(=O)C(C)(C)C)S(=O)(=O)C(F)(F)F)c(C)c1F (centres unmarked) [Compound 28]
90: Galium plant response rating [3, 29] | Plant response rating (0 to 100 scale), Ryegrass, Italian ([19]; 125 g ai/ha Preemergence) | Plant response rating (0 to 100 scale), Kochia ([24]; 125 g ai/ha Preemergence) | Pigweed, Palmer plant response rating ([26]; 125 g ai/ha Postemergence)
10: Corn plant response rating [21, 29] | Blackgrass plant response rating [25]
30: Goosegrass plant response rating [1, 29] | Plant response rating (0 to 100 scale), Pigweed, Palmer ([7]; 31 g ai/ha Preemergence) | Plant response rating, Rice [9] | Foxtail, Giant plant response rating [15, 29] | Plant response rating (0 to 100 scale), Wheat ([17]; 125 g ai/ha Preemergence) | Plant response rating (0 to 100 scale), Ryegrass, Italian ([19]; 31 g ai/ha Preemergence) | Plant response rating (0 to 100 scale), Corn [21, 30] | Plant response rating (0 to 100 scale), Oat, Wild [28, 30]
95: Plant response rating, Sedge, Umbrella [12]
60: Wheat plant response rating ([5]; 125 g ai/ha Postemergence) | Plant response rating (0 to 100 scale), Blackgrass ([6]; 125 g ai/ha Preemergence) | Soybean plant response rating ([11]; 125 g ai/ha Postemergence) | Plant response rating, Barnyardgrass [18]
40: Ryegrass, Italian plant response rating ([8]; 31 g ai/ha Postemergence) | Ryegrass, Italian plant response rating ([8]; 125 g ai/ha Postemergence) | Plant response rating (0 to 100 scale), Ragweed ([20]; 31 g ai/ha Preemergence)
80: Plant response rating (0 to 100 scale), Pigweed, Palmer ([7]; 125 g ai/ha Preemergence) | Plant response rating (0 to 100 scale), Kochia [14, 30] | Ragweed plant response rating ([16]; 31 g ai/ha Postemergence) | Ragweed plant response rating ([16]; 125 g ai/ha Postemergence) | Plant response rating (0 to 100 scale), Soybean ([22]; 125 g ai/ha Preemergence)
100: Plant response rating (0 to 100 scale), Goosegrass ([2]; 125 g ai/ha Preemergence) | Plant response rating (0 to 100 scale), Galium [3, 30] | Plant response rating (0 to 100 scale), Ragweed ([20]; 125 g ai/ha Preemergence) | Plant response rating (0 to 100 scale), Foxtail, Giant ([23]; 125 g ai/ha Preemergence)
0: Plant response rating (0 to 100 scale), Corn ([4]; 31 g ai/ha Preemergence) | Plant response rating (0 to 100 scale), Oat, Wild ([27]; 31 g ai/ha Preemergence)
20: Plant response rating (0 to 100 scale), Corn ([4]; 125 g ai/ha Preemergence) | Wheat plant response rating ([5]; 31 g ai/ha Postemergence) | Plant response rating (0 to 100 scale), Wheat ([17]; 31 g ai/ha Preemergence) | Plant response rating (0 to 100 scale), Soybean ([22]; 31 g ai/ha Preemergence) | Plant response rating (0 to 100 scale), Kochia ([24]; 31 g ai/ha Preemergence) | Plant response rating (0 to 100 scale), Oat, Wild ([27]; 125 g ai/ha Preemergence) | Oat, Wild plant response rating [28, 29]
50: Plant response rating (0 to 100 scale), Blackgrass ([6]; 31 g ai/ha Preemergence) | Soybean plant response rating ([11]; 31 g ai/ha Postemergence) | Kochia plant response rating [14, 29] | Pigweed, Palmer plant response rating ([26]; 31 g ai/ha Postemergence)
70: Plant response rating (0 to 100 scale), Goosegrass [1, 30] | Plant response rating (0 to 100 scale), Goosegrass ([2]; 31 g ai/ha Preemergence) | Plant response rating, Ducksalad [10] | Plant response rating (0 to 100 scale), Blackgrass [13] | Plant response rating (0 to 100 scale), Foxtail, Giant [15, 30] | Plant response rating (0 to 100 scale), Foxtail, Giant ([23]; 31 g ai/ha Preemergence)
